Data reported in patent US6525001B1, “Substituted pyrimidine and pyridine herbicides” (Mid-American Commercialization Corporation, priority 1997, dated 2003).

Legend:
Format in all cases: in vivo
kochia (Kochia scoparia) [1] = test: Test D; parameters: key: 0 is no effect; 100 is complete control; settings: PREEMERGENCE
[2] = test system: wild mustard (Sinapis arvensis); test: Test D; parameters: key: 0 is no effect; 100 is complete control; settings: PREEMERGENCE
[3] = test system: blackgrass (Alopecurus myosuroides); test: Test D; settings: PREEMERGENCE
[4] = test system: wild buckwheat (Polygonum convolvulus); test: Test D; settings: PREEMERGENCE
[5] = test system: jointed goatgrass (Aegilops cylindrica); test: Test D; parameters: key: 0 is no effect; settings: PREEMERGENCE
[6] = test system: ivyleaf speedwell (Veronica hederaefolia); test: Test D; parameters: key: 0 is no effect; 100 is complete control; settings: PREEMERGENCE
[7] = test system: annual bluegrass (Poa annua); test: Test D; parameters: key: 0 is no effect; 100 is complete control; settings: PREEMERGENCE
[8] = test system: spring wheat (Triticum aestivum); test: Test D; parameters: key to Plant response rating, Spring Wheat: 0 is no effect; settings: PREEMERGENCE
[9] = test system: deadnettle (Lamium amplexicaule); test: Test D; parameters: key: 0 is no effect; settings: PREEMERGENCE
wild oat (Avena fatua) = test: Test D; parameters: key: 0 is no effect; 100 is complete control; settings: PREEMERGENCE
[10] = test system: Russian thistle (Salsola kali); test: Test D; settings: PREEMERGENCE
[11] = test system: sugar beet (Beta vulgaris); test: Test D; parameters: key: 0 is no effect; 100 is complete control; settings: PREEMERGENCE
[12] = test system: winter barley (Hordeum vulgare); test: Test D; parameters: key: 0 is no effect; settings: PREEMERGENCE
[13] = test system: littleseed canarygrass (Phalaris minor); test: Test D; settings: PREEMERGENCE
[14] = test system: galium 2 (Galium aparine); test: Test D; parameters: key: 0 is no effect; 100 is complete control; settings: PREEMERGENCE
[15] = test system: field violet (Viola arvensis); test: Test D; parameters: key: 0 is no effect; 100 is complete control; settings: PREEMERGENCE
[16] = test system: downy brome (Bromus tectorum); test: Test D; parameters: key: 0 is no effect; 100 is complete control; settings: PREEMERGENCE, Rate 125 g/ha
kochia (Kochia scoparia) [17] = test: Test E pre-/postemergence/post directed; parameters: key: 0 is no effect; 100 is complete control; settings: PREEMERGENCE
Outline: (§1)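 Three application modes in greenhouse pots: preemergence soil spray, postemergence foliar spray at two to four leaves, and post-directed spray to soil and plant base. Ratings of 0–100 injury, assigned visually against untreated controls 13 to 21 days later.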

[18] = test system: itchgrass (Rottboellia exaltata); test: Test E pre-/postemergence/post directed; parameters: key: 0 is no effect; 100 is complete control; settings: PREEMERGENCE
Outline: as §1

CCc1cnc(-n2ccc(C(F)(F)F)n2)nc1Cc1cccc(C(F)(F)F)c1 [Compound 46]
30: Plant response rating, Spring Wheat ([8]; Rate 31 g/ha) | Plant response rating, Russian thistle ([10]; Rate 31 g/ha) | Plant response rating, Russian thistle ([10]; Rate 62 g/ha)
40: Plant response rating, Wild buckwheat ([4]; Rate 31 g/ha) | Plant response rating, Wild buckwheat ([4]; Rate 62 g/ha)
10: Plant response rating, Blackgrass ([3]; Rate 31 g/ha) | Plant response rating, Spring Wheat ([8]; Rate 62 g/ha)
70: Plant response rating, Wild oat (wild oat (Avena fatua); Rate 62 g/ha) | Plant response rating, Sugar beet ([11]; Rate 31 g/ha) | Plant response rating, LS canarygrass ([13]; Rate 31 g/ha)
2: Plant response rating, Barley (winter) ([12]; Rate 62 g/ha)
90: Plant response rating, Wild mustard ([2]; Rate 31 g/ha) | Plant response rating, Annual bluegras ([7]; Rate 62 g/ha) | Plant response rating, Deadnettle ([9]; Rate 31 g/ha) | Plant response rating, Deadnettle ([9]; Rate 62 g/ha) | Plant response rating, LS canarygrass ([13]; Rate 62 g/ha)
50: Plant response rating, Jointed goatgra ([5]; Rate 31 g/ha) | Plant response rating, Wild oat (wild oat (Avena fatua); Rate 31 g/ha) | Plant response rating, Barley (winter) ([12]; Rate 31 g/ha)
100: Plant response rating, Wild mustard ([2]; Rate 62 g/ha) | Plant response rating, Ivyleaf speedwe ([6]; Rate 31 g/ha) | Plant response rating, Ivyleaf speedwe ([6]; Rate 62 g/ha) | Plant response rating, Sugar beet ([11]; Rate 62 g/ha) | Plant response rating, Field violet ([15]; Rate 62 g/ha)
85: Plant response rating, Field violet ([15]; Rate 31 g/ha)
60: Plant response rating, Kochia (kochia (Kochia scoparia) [1]; Rate 31 g/ha) | Plant response rating, Kochia (kochia (Kochia scoparia) [1]; Rate 62 g/ha) | Plant response rating, Blackgrass ([3]; Rate 62 g/ha) | Plant response rating, Jointed goatgra ([5]; Rate 62 g/ha) | Plant response rating, Annual bluegras ([7]; Rate 31 g/ha) | Plant response rating, Galium ([14]; Rate 31 g/ha) | Plant response rating, Galium ([14]; Rate 62 g/ha)

CCc1cnc(-c2ccc(C(F)(F)F)cc2)nc1Cc1cccc(C(F)(F)F)c1 [Compound 22]
100: Plant response rating, Annual bluegras ([7]; Rate 125 g/ha) | Plant response rating, Sugar beet ([11]; Rate 125 g/ha) | Plant response rating, Galium ([14]; Rate 125 g/ha) | Plant response rating, Downy brome [16]
55: Plant response rating, Wild buckwheat ([4]; Rate 125 g/ha)
5: Plant response rating, Spring Wheat ([8]; Rate 250 g/ha)
65: Plant response rating, Kochia (kochia (Kochia scoparia) [1]; Rate 125 g/ha)
30: Plant response rating, Wild mustard ([2]; Rate 62 g/ha) | Plant response rating, Wild mustard ([2]; Rate 250 g/ha) | Plant response rating, Blackgrass ([3]; Rate 62 g/ha) | Plant response rating, Wild buckwheat ([4]; Rate 250 g/ha) | Plant response rating, Wild oat (wild oat (Avena fatua); Rate 125 g/ha) | Plant response rating, Wild oat (wild oat (Avena fatua); Rate 250 g/ha) | Plant response rating, Sugar beet ([11]; Rate 62 g/ha) | Plant response rating, Galium ([14]; Rate 250 g/ha)
0: Plant response rating, Jointed goatgra ([5]; Rate 62 g/ha) | Plant response rating, Spring Wheat ([8]; Rate 62 g/ha) | Plant response rating, Deadnettle ([9]; Rate 62 g/ha) | Plant response rating, Wild oat (wild oat (Avena fatua); Rate 62 g/ha) | Plant response rating, Barley (winter) ([12]; Rate 62 g/ha)
60: Plant response rating, Kochia (kochia (Kochia scoparia) [1]; Rate 250 g/ha) | Plant response rating, Wild mustard ([2]; Rate 125 g/ha) | Plant response rating, Blackgrass ([3]; Rate 125 g/ha) | Plant response rating, LS canarygrass ([13]; Rate 125 g/ha)
80: Plant response rating, Sugar beet ([11]; Rate 250 g/ha)
70: Plant response rating, Deadnettle ([9]; Rate 125 g/ha)
50: Plant response rating, Annual bluegras ([7]; Rate 250 g/ha) | Plant response rating, LS canarygrass ([13]; Rate 250 g/ha)
10: Plant response rating, Kochia (kochia (Kochia scoparia) [1]; Rate 62 g/ha) | Plant response rating, Jointed goatgra ([5]; Rate 250 g/ha) | Plant response rating, Spring Wheat ([8]; Rate 125 g/ha) | Plant response rating, Deadnettle ([9]; Rate 250 g/ha) | Plant response rating, Barley (winter) ([12]; Rate 250 g/ha)
40: Plant response rating, Blackgrass ([3]; Rate 250 g/ha)
20: Plant response rating, Jointed goatgra ([5]; Rate 125 g/ha) | Plant response rating, Annual bluegras ([7]; Rate 62 g/ha) | Plant response rating, Barley (winter) ([12]; Rate 125 g/ha) | Plant response rating, LS canarygrass ([13]; Rate 62 g/ha) | Plant response rating, Galium ([14]; Rate 62 g/ha)

Cc1cnc(-n2cnc(C(F)(F)F)n2)nc1Cn1ccc(C(F)(F)F)n1 [Compound 51]
50: Plant response rating, Barley (winter) ([12]; Rate 31 g/ha)
65: Plant response rating, Field violet ([15]; Rate 31 g/ha) | Plant response rating, Field violet ([15]; Rate 62 g/ha)
100: Plant response rating, Wild mustard ([2]; Rate 31 g/ha) | Plant response rating, Wild mustard ([2]; Rate 62 g/ha) | Plant response rating, Ivyleaf speedwe ([6]; Rate 31 g/ha) | Plant response rating, Ivyleaf speedwe ([6]; Rate 62 g/ha) | Plant response rating, Annual bluegras ([7]; Rate 62 g/ha) | Plant response rating, Sugar beet ([11]; Rate 31 g/ha) | Plant response rating, Sugar beet ([11]; Rate 62 g/ha) | Plant response rating, Galium ([14]; Rate 31 g/ha) | Plant response rating, Galium ([14]; Rate 62 g/ha)
70: Plant response rating, Spring Wheat ([8]; Rate 62 g/ha) | Plant response rating, Russian thistle ([10]; Rate 62 g/ha)
80: Plant response rating, Kochia (kochia (Kochia scoparia) [1]; Rate 62 g/ha) | Plant response rating, Blackgrass ([3]; Rate 62 g/ha) | Plant response rating, Deadnettle ([9]; Rate 31 g/ha) | Plant response rating, Deadnettle ([9]; Rate 62 g/ha) | Plant response rating, Wild oat (wild oat (Avena fatua); Rate 31 g/ha) | Plant response rating, LS canarygrass ([13]; Rate 31 g/ha)
95: Plant response rating, Wild oat (wild oat (Avena fatua); Rate 62 g/ha)
90: Plant response rating, Wild buckwheat ([4]; Rate 31 g/ha) | Plant response rating, Wild buckwheat ([4]; Rate 62 g/ha) | Plant response rating, Jointed goatgra ([5]; Rate 62 g/ha) | Plant response rating, Barley (winter) ([12]; Rate 62 g/ha) | Plant response rating, LS canarygrass ([13]; Rate 62 g/ha)
60: Plant response rating, Blackgrass ([3]; Rate 31 g/ha) | Plant response rating, Jointed goatgra ([5]; Rate 31 g/ha) | Plant response rating, Spring Wheat ([8]; Rate 31 g/ha) | Plant response rating, Russian thistle ([10]; Rate 31 g/ha)
85: Plant response rating, Kochia (kochia (Kochia scoparia) [1]; Rate 31 g/ha) | Plant response rating, Annual bluegras ([7]; Rate 31 g/ha)

Cc1cnc(-n2ccc(C(F)(F)F)n2)nc1Cn1ccc(C(F)(F)F)n1 [Compound 52]
50: Plant response rating, Kochia (kochia (Kochia scoparia) [1]; Rate 31 g/ha) | Plant response rating, Blackgrass ([3]; Rate 31 g/ha) | Plant response rating, Annual bluegras ([7]; Rate 31 g/ha) | Plant response rating, Deadnettle ([9]; Rate 31 g/ha) | Plant response rating, Wild oat (wild oat (Avena fatua); Rate 62 g/ha) | Plant response rating, Barley (winter) ([12]; Rate 31 g/ha) | Plant response rating, Barley (winter) ([12]; Rate 62 g/ha)
100: Plant response rating, Kochia (kochia (Kochia scoparia) [1]; Rate 125 g/ha) | Plant response rating, Wild mustard ([2]; Rate 125 g/ha) | Plant response rating, Annual bluegras ([7]; Rate 62 g/ha) | Plant response rating, Annual bluegras ([7]; Rate 125 g/ha) | Plant response rating, Sugar beet ([11]; Rate 31 g/ha) | Plant response rating, Sugar beet ([11]; Rate 62 g/ha) | Plant response rating, Sugar beet ([11]; Rate 125 g/ha)
70: Plant response rating, Spring Wheat ([8]; Rate 62 g/ha) | Plant response rating, Spring Wheat ([8]; Rate 125 g/ha) | Plant response rating, Deadnettle ([9]; Rate 62 g/ha)
80: Plant response rating, Kochia (kochia (Kochia scoparia) [1]; Rate 62 g/ha) | Plant response rating, Blackgrass ([3]; Rate 62 g/ha)
30: Plant response rating, Jointed goatgra ([5]; Rate 31 g/ha) | Plant response rating, Russian thistle ([10]; Rate 31 g/ha) | Plant response rating, LS canarygrass ([13]; Rate 31 g/ha)
40: Plant response rating, Wild buckwheat ([4]; Rate 31 g/ha) | Plant response rating, Jointed goatgra ([5]; Rate 62 g/ha) | Plant response rating, Jointed goatgra ([5]; Rate 125 g/ha) | Plant response rating, Wild oat (wild oat (Avena fatua); Rate 31 g/ha)
90: Plant response rating, Wild mustard ([2]; Rate 31 g/ha) | Plant response rating, Wild mustard ([2]; Rate 62 g/ha) | Plant response rating, Blackgrass ([3]; Rate 125 g/ha) | Plant response rating, Deadnettle ([9]; Rate 125 g/ha) | Plant response rating, LS canarygrass ([13]; Rate 125 g/ha)
85: Plant response rating, Russian thistle ([10]; Rate 62 g/ha) | Plant response rating, Russian thistle ([10]; Rate 125 g/ha)
60: Plant response rating, Wild buckwheat ([4]; Rate 62 g/ha) | Plant response rating, Spring Wheat ([8]; Rate 31 g/ha) | Plant response rating, Wild oat (wild oat (Avena fatua); Rate 125 g/ha) | Plant response rating, Barley (winter) ([12]; Rate 125 g/ha) | Plant response rating, LS canarygrass ([13]; Rate 62 g/ha)

Cc1cnc(-c2ccc(C(F)(F)F)cc2)nc1Cc1cccc(OC(F)(F)F)c1 [Compound 15]
95: Plant response rating, Kochia (kochia (Kochia scoparia) [17]; Rate 125 g/ha)
60: Plant response rating, Kochia (kochia (Kochia scoparia) [17]; Rate 32 g/ha)
100: Plant response rating, Kochia (kochia (Kochia scoparia) [17]; Rate 250 g/ha)
75: Plant response rating, Kochia (kochia (Kochia scoparia) [17]; Rate 64 g/ha)

Cc1cnc(-n2ccc(C(F)(F)F)n2)nc1Cc1cccc(C(F)(F)F)c1 [Example 2, 5-methyl-4-[[3-(trifluoromethyl)phenyl]methyl]-2-[3-(trifluoromethyl)-1H-pyrazol-1-yl]pyrimidine]
100: Plant response rating, Itchgrass ([18]; Rate 500 g/ha)

Cc1cnc(-c2ccc(C(F)(F)F)cc2)nc1Cn1ccc(C(F)(F)F)n1 [compound 9]
100: Plant response rating, Itchgrass ([18]; Rate 32 g/ha) | Plant response rating, Itchgrass ([18]; Rate 125 g/ha) | Plant response rating, Itchgrass ([18]; Rate 250 g/ha)
